The structures appear in SMILES notation.

For one test, the system named is MCF7. Put plainly: cells. The settings on record: Homo sapiens, MCF7, 24 h.
The target in another test is Carbonic anhydrase 9 (Homo sapiens, UniProt Q16790).

Description for Carbonic anhydrase 9: Inhibition of human recombinant CA9 preincubated for 15 mins prior to testing by stopped flow CO2 hydrase assay
Description for MCF7: Cytotoxicity against human MCF7 cells assessed as cell survivability after 24 hrs by crystal violet staining based microscopic analysis

Take `CN(C)c1ccc(-c2nc(NNc3csc(Nc4ccc(S(N)(=O)=O)cc4)n3)[nH]c(=O)c2C#N)cc1`: the concentration for half-maximal inhibition (IC50) (usually the concentration needed to halve the response being measured) in the test with MCF7 was 89.7 µM. In the case of `NS(=O)(=O)c1ccc(Nc2nc(Nc3ccc(C(=O)O)cc3)cs2)cc1`, the Ki (in general, a dissociation constant, usually derived from enzyme kinetics or from competition with a known ligand) on Carbonic anhydrase 9 turned out to be 0.0088 µM. This molecule returned a 50% inhibitory concentration (IC50) in the test with MCF7 of 22.1 µM.

On to `NS(=O)(=O)c1ccc(Nc2nc(NN3C(=O)/C(=C/c4ccc(Cl)cc4)N=C3c3ccccc3)cs2)cc1`, for which the inhibition constant (Ki) on Carbonic anhydrase 9 was 0.0292 µM. For the same molecule, in the test with MCF7, the IC50 was > 150 µM. `NS(=O)(=O)c1ccc(Nc2csc(Nc3ccc(S(N)(=O)=O)cc3)n2)cc1` yielded a Ki on Carbonic anhydrase 9 of 0.0073 µM. Besides, the IC50 in the test on MCF7 stood at 21.5 µM. On to `N#Cc1c(-c2ccc(Cl)cc2)nc(Sc2csc(Nc3ccc(S(N)(=O)=O)cc3)n2)[nH]c1=O`, for which, in the test on MCF7, it took 86.6 µM to reach half-maximal inhibition (IC50). On to `NC(N)=NS(=O)(=O)c1ccc(N/N=C2\SC(Nc3ccc(S(N)(=O)=O)cc3)=NC2=O)cc1`, for which affinity at Carbonic anhydrase 9 was put at a Ki of 0.0085 µM. Besides, half-maximal inhibition with MCF7 (IC50) was put at 11.9 µM.

Turning to `NS(=O)(=O)c1ccc(Nc2nc(Nc3ccc(F)cc3)cs2)cc1`, the affinity on Carbonic anhydrase 9 corresponds to a Ki of 0.0056 µM. In the test with MCF7, this molecule yielded an IC50 of 12 µM. `N#Cc1c(-c2ccccc2)nc(Sc2csc(Nc3ccc(S(N)(=O)=O)cc3)n2)[nH]c1=O`: the IC50 with MCF7 is > 150 µM. The same measure, in the same setting: next, `NS(=O)(=O)c1ccc(Nc2nc(NN3C(=O)/C(=C/c4ccccc4)N=C3c3ccc(Cl)cc3)cs2)cc1`: > 150 µM. In turn, `NS(=O)(=O)c1ccc(NC2=NC(=O)/C(=N/Nc3ccc(Cl)cc3)S2)cc1` registered a half-inhibitory concentration (IC50) in the test with MCF7 of 10.7 µM.

`NS(=O)(=O)c1ccc(NC2=NC(=O)/C(=N/Nc3ccc(C(=O)O)cc3)S2)cc1` returned a Ki on Carbonic anhydrase 9 of 0.0064 µM. Besides, the IC50 in the test with MCF7 turned out to be 5.45 µM. With `CN(C)c1ccc(/C=C2\N=C(c3ccccc3)N(Nc3csc(Nc4ccc(S(N)(=O)=O)cc4)n3)C2=O)cc1`, half-maximal inhibition in the test with MCF7 (IC50) was put at 38.9 µM. In the case of `NS(=O)(=O)c1ccc(Nc2nc(NN3C(=O)/C(=C/c4ccccc4)N=C3c3ccccc3)cs2)cc1`, in the test with MCF7, the midpoint of inhibition, the IC50, lay at 45.9 µM. On to `NS(=O)(=O)c1ccc(N/N=C2\SC(Nc3ccc(S(N)(=O)=O)cc3)=NC2=O)cc1`, for which affinity on Carbonic anhydrase 9 was put at a Ki of 0.0058 µM. Also, in the test on MCF7, half-maximal inhibition (IC50) required 2.79 µM. In turn, `NS(=O)(=O)c1ccc(Nc2nc(NN3C(=O)/C(=C/c4ccc(Cl)cc4)N=C3c3ccc(Cl)cc3)cs2)cc1` returned an IC50 with MCF7 of 136 µM.

For `NS(=O)(=O)c1ccc(Nc2nc(N3CCCCC3)cs2)cc1`, the Ki at Carbonic anhydrase 9 is 0.0067 µM. The molecule also showed an IC50 with MCF7 of 24.3 µM. In turn, `N#Cc1c(-c2ccccc2)nc(NNc2csc(Nc3ccc(S(N)(=O)=O)cc3)n2)[nH]c1=O` had a Ki at Carbonic anhydrase 9 of 0.0065 µM. The IC50 in the test with MCF7 is > 150 µM. `CN(C)c1ccc(-c2nc(Sc3csc(Nc4ccc(S(N)(=O)=O)cc4)n3)[nH]c(=O)c2C#N)cc1` came in with an IC50 with MCF7 of 85 µM. Still for that read-out and setting: next, `CN(C)c1ccc(/C=C2\N=C(c3ccc(Cl)cc3)N(Nc3csc(Nc4ccc(S(N)(=O)=O)cc4)n3)C2=O)cc1`: 44.5 µM; `N#Cc1c(-c2ccc(Cl)cc2)nc(NNc2csc(Nc3ccc(S(N)(=O)=O)cc3)n2)[nH]c1=O`: > 150 µM. With `O=c1[nH]cc(F)c(=O)[nH]1` [FLUOROURACIL], in the test on MCF7, the IC50 amounted to 11.1 µM. This lies in the double-digit micromolar range.

These data come from ChEMBL document CHEMBL3808361, “Synthesis of 4-(thiazol-2-ylamino)-benzenesulfonamides with carbonic anhydrase I, II and IX inhibitory activity and cytotoxic effects against breast cancer cell lines” (Bioorg Med Chem, 2016).
